Laboratory results from patent US4725683A, “Fluorophenoxyphenoxypropionates and derivatives thereof” (The Dow Chemical Company, priority 1985, dated 1988).

Assays:
Format in all cases: in vivo
Barnyard Grass = test: Preemergent activity; conditions: Echinochloa crus-galli, pre-emergence, read-out: Preemergence Control
Outline: (§1)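 Test compound was dissolved in acetone at twice the final concentration, then mixed with an equal volume of water containing 0.1% w/w Tween-20. The resulting emulsion was sprayed uniformly at a predetermined rate onto sandy loam seed beds sown with each species. Controls received acetone–Tween-20–water only.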

Yellow Foxtail = test: Preemergent activity; conditions: Setaria, pre-emergence, read-out: Preemergence Control
Outline: as §1

Barley = test: Selective postemergence, track sprayer
Description: (§2) Representative compositions of the present invention were evaluated for the postemergence control of species of plants listed in Table A. In these evaluations, pots of the plant species listed in Table A, grown to a height of about 10 cms, were used. Aqueous spray compositions, containing various amounts of 2-[4-(2-fluoro-4-trifluoromethylphenoxy)-phenoxy]propionic acid methy ester, i.e., 125 ppm, 62.5 ppm, 31.25 ppm, 15.6 ppm, 7.8 ppm and 3.9 ppm, respectively, were applied to separate pots. The spray compositions were made by mixing the active ingredient in acetone to 1/2 the final volume, i.e., twice the final concentration. An equal amount of water was added to the active ingredient/acetone mixture wherein the water contained 0.1 percent by weight of TWEEN® 200 surfactant. The application to the plants was made to the point of run-off and was carried out with conventional spraying equipment. Other pots were sprayed with similar compositions containing no toxicant to serve as controls. Thereafter, the pots were maintained under conditions conducive for plant growth. Two weeks after treatment, the pots were examined for plant growth and evaluated on a scale of 0 to 100 where 0 represents no effect and 100 represents complete kill. The results of the examination of the treated pots are set forth below in Table A.
(§3) To further define the selective postemergence herbicidal characteristics of compounds of the present invention, chemicals were applied to additional species of grasses as listed in Table F. Chemicals evaluated were 2-[4-(4-bromo-2-fluorophenoxy)phenoxy]propionic acid methyl ester and its R isomer. Treatment conditions were similar to those described in Example A except that chemicals were delivered through a track sprayer set to deliver the appropriate dosages in 280.6 L/hectare of water containing 0.1% Tween-20 surfactant.

Annual Bluegrass = test: Selective postemergence, track sprayer
Description: as §2, §3

Green Foxtail = test: Selective postemergence, track sprayer
Description: as §2, §3

Downey Brome = test: Selective postemergence, track sprayer
Description: as §2, §3

Johnsongrass = test: Selective postemergence, track sprayer
Description: as §2, §3

Tall Fescue = test: Selective postemergence, track sprayer
Description: as §2, §3

Annual Rye = test: Selective postemergence, track sprayer
Description: as §2, §3

Barnyardgrass = test: Selective postemergence, track sprayer
Description: as §2, §3

Cheatgrass = test: Selective postemergence, track sprayer
Description: as §2, §3

In the case of `COC(=O)C(C)Oc1ccc(Oc2ccc(C(F)(F)F)cc2F)cc1` (stereo not shown) [2-[4-(2-fluoro-4-trifluoromethylphenoxy)phenoxy]propionic acid methyl ester], the pest or weed control at 18 g/ha (Barnyard Grass; 0.018 kgs/hectare) is reported as 20%, the pest or weed control at 35 g/ha (Barnyard Grass; 0.035 kgs/hectare) is reported as 70% and the pest or weed control at 70 g/ha (Barnyard Grass; 0.07 kgs/hectare) is reported as 80%. For the same molecule, the pest or weed control at 114 g/ha (Barnyard Grass; 0.114 kgs/hectare) was 100%, the pest or weed control at 280 g/ha (Barnyard Grass; 0.28 kgs/hectare) was 100% and the pest or weed control at 18 g/ha (Yellow Foxtail; 0.018 kgs/hectare) was 20%. The pest or weed control at 35 g/ha (Yellow Foxtail; 0.035 kgs/hectare) was 70%, the pest or weed control at 70 g/ha (Yellow Foxtail; 0.07 kgs/hectare) was 100% and the pest or weed control at 114 g/ha (Yellow Foxtail; 0.114 kgs/hectare) was 100%. For the same molecule, the pest or weed control at 280 g/ha (Yellow Foxtail; 0.28 kgs/hectare) was 100%.

`COC(=O)[C@@H](C)Oc1ccc(Oc2ccc(Br)cc2F)cc1` [4-Bromo-(R-Enantiomer), R enantiomer of 2-[4-(4-bromo-2-fluorophenoxy)phenoxy]propionic acid methyl ester] was tested, and the “Percent Control” value (Barley; 0.00055 kgs/hectare) was 0%, the “Percent Control” value (Barley; 0.0011 kgs/hectare) was 0% and the “Percent Control” value (Barley; 0.0023 kgs/hectare) was 0%. The “Percent Control” value (Barley; 0.0045 kgs/hectare) was 0%, the “Percent Control” value (Barley; 0.009 kgs/hectare) was 0% and the “Percent Control” value (Barley; 0.018 kgs/hectare) was 0%. The “Percent Control” value (Barley; 0.035 kgs/hectare) was 0%, the “Percent Control” value (Barley; 0.07 kgs/hectare) was 0% and the “Percent Control” value (Barley; 0.14 kgs/hectare) was 0%. The “Percent Control” value (Barley; 0.28 kgs/hectare) was 0%, the “Percent Control” value (Annual Bluegrass; 0.00055 kgs/hectare) was 0% and the “Percent Control” value (Annual Bluegrass; 0.0011 kgs/hectare) was 0%. The “Percent Control” value (Annual Bluegrass; 0.0023 kgs/hectare) was 0%, the “Percent Control” value (Annual Bluegrass; 0.0045 kgs/hectare) was 0% and the “Percent Control” value (Annual Bluegrass; 0.009 kgs/hectare) was 0%. The “Percent Control” value (Annual Bluegrass; 0.018 kgs/hectare) was 0%, the “Percent Control” value (Annual Bluegrass; 0.035 kgs/hectare) was 0% and the “Percent Control” value (Annual Bluegrass; 0.07 kgs/hectare) was 0%. For the same molecule, the “Percent Control” value (Annual Bluegrass; 0.14 kgs/hectare) was 0%, the “Percent Control” value (Annual Bluegrass; 0.28 kgs/hectare) was 0% and the “Percent Control” value (Green Foxtail; 0.00055 kgs/hectare) was 30%. The “Percent Control” value (Green Foxtail; 0.0011 kgs/hectare) was 70%, the “Percent Control” value (Green Foxtail; 0.0023 kgs/hectare) was 90% and the “Percent Control” value (Green Foxtail; 0.0045 kgs/hectare) was 95%. The “Percent Control” value (Green Foxtail; 0.009 kgs/hectare) was 95%, the “Percent Control” value (Green Foxtail; 0.018 kgs/hectare) was 100% and the “Percent Control” value (Green Foxtail; 0.035 kgs/hectare) was 100%. For the same molecule, the “Percent Control” value (Green Foxtail; 0.07 kgs/hectare) was 100%, the “Percent Control” value (Green Foxtail; 0.14 kgs/hectare) was 100% and the “Percent Control” value (Green Foxtail; 0.28 kgs/hectare) was 100%. The “Percent Control” value (Downey Brome; 0.00055 kgs/hectare) was 0%, the “Percent Control” value (Downey Brome; 0.0011 kgs/hectare) was 0% and the “Percent Control” value (Downey Brome; 0.0023 kgs/hectare) was 0%. For the same molecule, the “Percent Control” value (Downey Brome; 0.0045 kgs/hectare) was 0%, the “Percent Control” value (Downey Brome; 0.009 kgs/hectare) was 0% and the “Percent Control” value (Downey Brome; 0.018 kgs/hectare) was 0%. For the same molecule, the “Percent Control” value (Downey Brome; 0.035 kgs/hectare) was 0%, the “Percent Control” value (Downey Brome; 0.07 kgs/hectare) was 0% and the “Percent Control” value (Downey Brome; 0.14 kgs/hectare) was 0%. The “Percent Control” value (Downey Brome; 0.28 kgs/hectare) was 0%, the “Percent Control” value (Johnsongrass; 0.00055 kgs/hectare) was 0% and the “Percent Control” value (Johnsongrass; 0.0011 kgs/hectare) was 0%. For the same molecule, the “Percent Control” value (Johnsongrass; 0.0023 kgs/hectare) was 0%, the “Percent Control” value (Johnsongrass; 0.0045 kgs/hectare) was 0% and the “Percent Control” value (Johnsongrass; 0.009 kgs/hectare) was 0%. For the same molecule, the “Percent Control” value (Johnsongrass; 0.018 kgs/hectare) was 0%, the “Percent Control” value (Johnsongrass; 0.035 kgs/hectare) was 0% and the “Percent Control” value (Johnsongrass; 0.07 kgs/hectare) was 20%. The “Percent Control” value (Johnsongrass; 0.14 kgs/hectare) was 40%, the “Percent Control” value (Johnsongrass; 0.28 kgs/hectare) was 70% and the “Percent Control” value (Tall Fescue; 0.00055 kgs/hectare) was 0%. The “Percent Control” value (Tall Fescue; 0.0011 kgs/hectare) was 0%, the “Percent Control” value (Tall Fescue; 0.0023 kgs/hectare) was 0% and the “Percent Control” value (Tall Fescue; 0.0045 kgs/hectare) was 20%. For the same molecule, the “Percent Control” value (Tall Fescue; 0.009 kgs/hectare) was 50%, the “Percent Control” value (Tall Fescue; 0.018 kgs/hectare) was 70% and the “Percent Control” value (Tall Fescue; 0.035 kgs/hectare) was 80%. The “Percent Control” value (Tall Fescue; 0.07 kgs/hectare) was 90%, the “Percent Control” value (Tall Fescue; 0.14 kgs/hectare) was 90% and the “Percent Control” value (Tall Fescue; 0.28 kgs/hectare) was 90%. The “Percent Control” value (Annual Rye; 0.00055 kgs/hectare) was 0%, the “Percent Control” value (Annual Rye; 0.0011 kgs/hectare) was 0% and the “Percent Control” value (Annual Rye; 0.0023 kgs/hectare) was 0%. For the same molecule, the “Percent Control” value (Annual Rye; 0.0045 kgs/hectare) was 0%, the “Percent Control” value (Annual Rye; 0.009 kgs/hectare) was 20% and the “Percent Control” value (Annual Rye; 0.018 kgs/hectare) was 30%. For the same molecule, the “Percent Control” value (Annual Rye; 0.035 kgs/hectare) was 60%, the “Percent Control” value (Annual Rye; 0.07 kgs/hectare) was 70% and the “Percent Control” value (Annual Rye; 0.14 kgs/hectare) was 90%. For the same molecule, the “Percent Control” value (Annual Rye; 0.28 kgs/hectare) was 90%, the “Percent Control” value (Barnyardgrass; 0.00055 kgs/hectare) was 90% and the “Percent Control” value (Barnyardgrass; 0.0011 kgs/hectare) was 80%. The “Percent Control” value (Barnyardgrass; 0.0023 kgs/hectare) was 100%, the “Percent Control” value (Barnyardgrass; 0.0045 kgs/hectare) was 100% and the “Percent Control” value (Barnyardgrass; 0.009 kgs/hectare) was 100%. The “Percent Control” value (Barnyardgrass; 0.018 kgs/hectare) was 100%, the “Percent Control” value (Barnyardgrass; 0.035 kgs/hectare) was 100% and the “Percent Control” value (Barnyardgrass; 0.07 kgs/hectare) was 100%. For the same molecule, the “Percent Control” value (Barnyardgrass; 0.14 kgs/hectare) was 100%, the “Percent Control” value (Barnyardgrass; 0.28 kgs/hectare) was 100% and the “Percent Control” value (Cheatgrass; 0.00055 kgs/hectare) was 0%. The “Percent Control” value (Cheatgrass; 0.0011 kgs/hectare) was 0%, the “Percent Control” value (Cheatgrass; 0.0023 kgs/hectare) was 0% and the “Percent Control” value (Cheatgrass; 0.0045 kgs/hectare) was 0%. For the same molecule, the “Percent Control” value (Cheatgrass; 0.009 kgs/hectare) was 0%, the “Percent Control” value (Cheatgrass; 0.018 kgs/hectare) was 0% and the “Percent Control” value (Cheatgrass; 0.035 kgs/hectare) was 0%. For the same molecule, the “Percent Control” value (Cheatgrass; 0.07 kgs/hectare) was 0%, the “Percent Control” value (Cheatgrass; 0.14 kgs/hectare) was 0% and the “Percent Control” value (Cheatgrass; 0.28 kgs/hectare) was 0%.
